Counter-ions that a name gives are not always drawn. Like-named read-outs stand apart in the source and are kept apart here. One block for each compound: values may come before it.
Key:
[1] = molecular target: T1, recombinant human sPLA2-IIA enzyme (Homo sapiens, UniProt P14555); experiment: sPLA2-IIA enzyme inhibition assay (thio-PC substrate, DTNB detection, absorbance 410 nm); type: biochemical; settings: class symbols
T1 construct: made in house; host or cells: E. coli
T1 sequence (P14555 21-144): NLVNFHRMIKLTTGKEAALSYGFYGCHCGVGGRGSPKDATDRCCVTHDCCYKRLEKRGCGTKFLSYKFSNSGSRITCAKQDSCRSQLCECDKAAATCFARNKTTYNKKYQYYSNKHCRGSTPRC

[2] = molecular target: T2, recombinant human sPLA2-V enzyme (Homo sapiens, UniProt P39877); experiment: sPLA2-V enzyme inhibition assay (thio-PC substrate, DTNB detection, absorbance 410 nm); type: biochemical; settings: class symbols
T2 construct: made in house; host or cells: E. coli
T2 sequence (P39877 21-138): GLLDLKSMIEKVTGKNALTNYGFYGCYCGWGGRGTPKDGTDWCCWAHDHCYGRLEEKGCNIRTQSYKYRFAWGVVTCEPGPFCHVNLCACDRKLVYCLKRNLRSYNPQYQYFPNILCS

sPLA2-X protein [3] = molecular target: T3, sPLA2-X protein (Homo sapiens, UniProt O15496); experiment: sPLA2-X enzyme inhibition assay (thio-PC substrate, DTNB detection, absorbance 410 nm); type: biochemical; design: made in house; host or cells: E. coli; settings: class symbols
T3 sequence (O15496 43-165): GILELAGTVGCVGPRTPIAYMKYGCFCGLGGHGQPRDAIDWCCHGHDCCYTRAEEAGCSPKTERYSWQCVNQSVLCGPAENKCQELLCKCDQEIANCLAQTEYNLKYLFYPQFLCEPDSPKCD

sPLA2-X protein [4] = molecular target: T3, sPLA2-X protein; experiment: SPR single cycle kinetic binding analysis against sPLA2-X; design: His tag (implied by capture on NTA surface and by anti-His antibody); settings: protein captured cross-linked on NTA surface, 1:1 fit
Experimental: sPLA2-X protein was captured on flow cell 2-4 on activated NTA surface (NTA Series S Sensorchip (Cytiva)) after dilution in 1×HBS-EP+buffer (Cytiva), 10 mM CaCl2 to 0.01 mg/mL with a flow rate of 5 μL/min for 60 sec. Single cycle kinetic binding analysis was performed using 10 mM stock solution of LY531590 (Cayman Chemical, item #18267) (prepared in DMSO diluted 1:5 in running buffer (lx HBS-EP+buffer (Cytiva)+10 mM CaCl2+2% DMSO) from 10 to 0.016 μM. Flow cell 1 was used as a reference surface and 350 mM EDTA (Cytiva) was used to regenerate the surface. DMSO solvent correction was included. A 1:1 fit was used for the kinetics analysis.
SPLA2-X protein was captured cross-linked on flow cell 2, 3, and 4 with activated NTA surface (NTA Series S Sensorchip (Cytiva)) at 0.01 mg/mL with a flow rate of […] for 60 sec. Single cycle kinetic binding analysis was performed using a 50 mM stock solution of Compound 5 (prepared in DMSO) diluted 1:5 in running buffer (1×HIBS-EP+buffer (Cytiva)+10 mM CaCl2+2% o DMSO) from 800 to 1.2 nMV. Flow cell 1 was used as a reference surface. DMSO solvent correction was included. A 1:1 fit was used for the kinetics and steady state affinity analysis.

[5] = read-out: sPLA2 Type IIa Inhibition (IC50; nM)
[6] = read-out: sPLA2 Type V Inhibition (IC50; nM)
[7] = read-out: sPLA2 Type X Inhibition (IC50; nM)
[8] = sPLA2 Type X Inhibition (IC50; nM)

SMILES: NC(=O)c1cc2ccc(OC(F)(F)F)cc2n1-c1ccc2oc(C(=O)O)cc2c1 [Compound 16, 5-(2-carbamoyl-6-(trifluoromethoxy)-1H-indol-1-yl)benzofuran-2-carboxylic acid]
IC50 [1, 5]: > 1000 nM | IC50 [2, 6]: > 5000 nM | IC50 (sPLA2-X protein [3]; [7]): 50 to 200 nM

SMILES: NC(=O)c1[se]c2ccc(OC(F)(F)F)cc2c1-c1cccc(C2CC2C(=O)O)n1 (racemic) [Compound 55, trans-(rac)-2-(6-(2-carbamoyl-5-(trifluoromethoxy)benzo[b]selenophen-3-yl)pyridin-2-yl)cyclopropane-1-carboxylic acid]
IC50 ([1]; sPLA2 Type IIa Inhibition (IC50; nM)): > 1000 nM | IC50 ([2]; sPLA2 Type V Inhibition (IC50; nM)): > 5000 nM | IC50 (sPLA2-X protein [3]; [8]): > 200 nM

SMILES: NC(=O)c1cc2ccc(OC(F)(F)F)cc2n1-c1cccc(C[C@@H](N)C(=O)O)c1 [Compound 23, (R)-2-amino-3-(3-(2-carbamoyl-6-(trifluoromethoxy)-1H-indol-1-yl)phenyl)propanoic acid TFA salt]
IC50 [1, 5]: > 1000 nM | IC50 [2, 6]: > 5000 nM | IC50 (sPLA2-X protein [3]; [7]): > 200 nM

SMILES: NC(=O)c1cc2ccc(OC(F)(F)F)cc2n1-c1cccc(S(=O)(=O)CC(=O)O)n1 [Compound 45, 2-((6-(2-carbamoyl-6-(trifluoromethoxy)-1H-indol-1-yl)pyridin-2-yl)sulfonyl)acetic acid]
IC50 [1, 5]: > 1000 nM | IC50 [2, 6]: > 5000 nM | IC50 (sPLA2-X protein [3]; [7]): 20 to 50 nM

SMILES: NC(=O)c1cc2ccc(OC(F)(F)F)cc2n1-c1cccc(C2(N)CCC2)n1 [Compound 49, 1-(6-(1-aminocyclobutyl)pyridin-2-yl)-6-(trifluoromethoxy)-1H-indole-2-carboxamide TFA salt]
IC50 [1, 5]: > 1000 nM | IC50 [2, 6]: > 5000 nM | IC50 (sPLA2-X protein [3]; [7]): > 200 nM

SMILES: NC(=O)c1cc2ccc(OC(F)(F)F)cc2n1-c1cccc(CNC(=O)C(F)(F)F)n1 [Compound 37, 1-(6-((2,2,2-trifluoroacetamido)methyl)pyridin-2-yl)-6-(trifluoromethoxy)-1H-indole-2-carboxamide]
IC50 [1, 5]: > 1000 nM | IC50 [2, 6]: > 5000 nM | IC50 (sPLA2-X protein [3]; [7]): > 200 nM

SMILES: NC(=O)c1cc2ccc(OC(F)(F)F)cc2n1-c1cccc(CC2(C(=O)O)CC2)c1 [Compound 19, 1-(3-(2-carbamoyl-6-(trifluoromethoxy)-1H-indol-1-yl)benzyl)cyclopropane-1-carboxylic acid]
IC50 [1, 5]: > 1000 nM | IC50 [2, 6]: > 5000 nM | IC50 (sPLA2-X protein [3]; [7]): > 200 nM

SMILES: CC(C)(Cc1cccc(-n2c(C(N)=O)cc3ccc(OC(F)(F)F)cc32)n1)C(=O)O [Compound 8, 3-(6-(2-carbamoyl-6-(trifluoromethoxy)-1H-indole-1-yl)pyridin-2-yl)-2,2-dimethylpropanoic acid]
IC50 [1, 5]: > 1000 nM | IC50 [2, 6]: > 5000 nM | IC50 (sPLA2-X protein [3]; [7]): 50 to 200 nM

SMILES: NC(=O)c1[se]c2ccc(OC(F)(F)F)cc2c1-c1cccc(CCC(=O)O)c1 [Compound 29, 3-(3-(2-carbamoyl-5-(trifluoromethoxy)benzo[b]selenophen-3-yl)phenyl)propanoic acid]
IC50 [1, 5]: 500 to 1000 nM | IC50 [2, 6]: 1500 to 5000 nM | IC50 (sPLA2-X protein [3]; [8]): 50 to 200 nM

Second part, the compound after the results:

IC50 [1, 5]: 200 to 500 nM | IC50 [2, 6]: 1500 to 5000 nM | IC50 (sPLA2-X protein [3]; [7]): 20 to 50 nM | Rmax (sPLA2-X protein [4]): 2.13 | Kd (sPLA2-X protein [4]; kinetics and steady state affinity): 8.02 nM
SMILES: NC(=O)c1sc2ccc(OC(F)(F)F)cc2c1-c1cccc(CCC(=O)O)c1 [Compound 5, 3-(3-(2-carbamoyl-5-(trifluoromethoxy)benzo[b]thiophen-3-yl)phenyl)propanoic acid]

IC50 [1, 5]: > 1000 nM | IC50 [2, 6]: > 5000 nM | IC50 (sPLA2-X protein [3]; [7]): 50 to 200 nM
SMILES: NC(=O)c1sc2ccc(OC(F)(F)F)cc2c1-c1cccc(C2CC2C(=O)O)n1 (racemic) [Compound 54, trans-(rac)-2-(6-(2-carbamoyl-5-(trifluoromethoxy)benzo[b]thiophen-3-yl)pyridin-2-yl)cyclopropane-1-carboxylic acid]

IC50 [1, 5]: > 1000 nM | IC50 [2, 6]: > 5000 nM | IC50 (sPLA2-X protein [3]; [7]): > 200 nM
SMILES: NC(=O)c1cc2ccc(OC(F)(F)F)cc2n1-c1cccc(C2CC2C(=O)O)c1 (single isomer, unassigned) [Compound 15a, trans-(+)-2-(3-(2-carbamoyl-6-(trifluoromethoxy)-1H-indol-1-yl)phenyl)cyclopropane-1-carboxylic acid]

IC50 [1, 5]: > 1000 nM | IC50 [2, 6]: > 5000 nM | IC50 (sPLA2-X protein [3]; [7]): < 20 nM
SMILES: NC(=O)c1cc2ccc(OC(F)(F)F)cc2n1-c1cccc(SCC(=O)O)n1 [Compound 44, 2-((6-(2-carbamoyl-6-(trifluoromethoxy)-1H-indol-1-yl)pyridin-2-yl)thio)acetic acid]

IC50 [1, 5]: > 1000 nM | IC50 [2, 6]: 500 to 1500 nM | IC50 (sPLA2-X protein [3]; [7]): < 20 nM
SMILES: NC(=O)c1cc2ccc(OC(F)(F)F)cc2n1-c1cccc(N2CC[C@@H]2C(=O)O)n1 [Compound 70, (R)-1-(6-(2-carbamoyl-6-(trifluoromethoxy)-1H-indol-1-yl)pyridin-2-yl)azetidine-2-carboxylic acid]

IC50 [1, 5]: > 1000 nM | IC50 [2, 6]: > 5000 nM | IC50 (sPLA2-X protein [3]; [7]): < 20 nM
SMILES: NC(=O)c1sc2ccc(OC(F)(F)F)cc2c1-c1cccc(C2CC2C(=O)O)n1 (stereo not drawn) [Compound 56, trans-2-(6-(2-carbamoyl-5-(trifluoromethoxy)benzo[b]thiophen-3-yl)pyridin-2-yl)cyclopropane-1-carboxylic acid]
